Test results from a melting point compilation (Tetko et al.; mined from patent text by program, amines drawn as free bases though some values may be those of a salt).

| SMILES | melting point [°C] |
| --- | --- |
| Cn1cc(C(F)(F)F)nc1-c1ccc(OCC(O)CNCCOc2ccc(O)c(C(N)=O)c2)cc1 (stereo not given) | 195 to 197 |
| COc1ccc2[nH]c3c(c2c1)CCC(C(=O)O)C3 (stereo not given) | 226 to 228 |
| COc1cc2c(cc1OCc1ccccc1)C(O)CN(Cc1cc(OC)c(OC)c(OC)c1)C2 (stereo not given) | 126 to 127 |
| CC(=O)OCC1OC(O)(c2ccc(Cl)cc2)C(OC(C)=O)C(OC(C)=O)C1OC(C)=O (stereo not given) | 124 |
| O=[N+]([O-])c1cc(-c2nc3ccccc3[nH]2)cc(O)c1O | > 300 |
| CCc1ccc2c(c1)CC(NC(=O)C(F)(F)F)C2 (stereo not given) | 112 to 114 |
| O=[N+]([O-])c1cc([C@@H]2CO2)ccc1OCc1ccccc1 | 66 |
| CCOC(=O)c1c(N(Cc2c(F)cccc2F)C(=O)OCC)sc(-c2ccc([N+](=O)[O-])cc2)c1CBr | 105 to 108 |
| COc1cc(/C=C/c2cc(/C=C/c3ccc4[nH]ccc4c3)n[nH]2)ccc1OCc1ccccn1 | 96 to 101 |
| CCOC(=O)c1cn(C(C)CSc2ccccc2)c2nc(F)c(Cl)cc2c1=O (stereo not given) | 70 |
| Cc1nc(N2CCN(CCC3CC3)C2=O)sc1C(=O)NCc1ccccc1 | 137 to 138 |
| O=[N+]([O-])c1ccc(C=C(Cl)Cl)o1 | 74 to 75 |
| Cc1c(C)n(CC=C(Cl)Cl)c2c(OCc3ccccc3)nncc12 | 149 to 151 |
| CCOC(=O)N1CCN(c2nc(NC3CC3)ccc2[N+](=O)[O-])CC1 | 100 to 103 |
| CCOC(=O)C=Cc1cc(C(C)=O)ccc1OC | 90 |
| CN(C)CC(=O)NCC#Cc1cnc2c(c1)N(Cc1c(Cl)cccc1Cl)CCN2 | > 200 |
| O=C(CCl)NC(C(=O)O)c1cscn1 (stereo not given) | 193 to 195 |
| C=C1CCCc2ccc(OCc3ccc4ccccc4n3)cc21 | 56 to 58 |
| Cc1c(C2=CCC(Cc3ccccc3)(N(C)C)CC2)[nH]c2ccc(C(F)(F)F)cc12 (stereo not given) | 119 to 120 |
| CC(C)(C)OC(=O)NC(CO)COc1noc2ccc(Cl)cc12 (stereo not given) | 121 to 122 |

| SMILES | melting point [°C] |
| --- | --- |
| CCn1c(N)nc2cc(CN3CCN(C(c4ccccc4)c4ccccc4)CC3)ccc21 | 214 |
| O=C1N[C@H](CO)C[C@H]1C1CCCCC1 | 96 to 97 |
| Cc1nc(NC(CO)C(C)SCc2ccccc2)c2nc(-c3ccccc3)cc-2[nH]1 (stereo not given) | 220 to 222 |
| C=C(C#N)CN1CCC(C(=O)O)CC1 | 109 to 111 |
| COC(=O)c1ccc(OC(=O)c2ccc(OC)c(C34CC5CC(CC(C5)C3)C4)c2)cc1O | 125 to 127 |
| Cc1nn(-c2c(Cl)cc(Cl)cc2Cl)c(N)c1C(=O)c1ccccc1Cl | 220 |
| Cc1ccc(-c2nccc3c(Cl)cccc23)cc1 | 88.6 to 89.1 |
| c1ccc(-c2cn3ccsc3n2)cc1 | 143 to 144 |
| CCCC(=O)c1cnc2c(OCCOCCO)cccc2c1Nc1ccc(F)cc1C | 144 to 145 |
| CCOC(=O)C1OC(n2cnc3c(N)ncnc32)C(O)C1N (stereo not given) | 179 to 182 |
| O=C(N[C@H]1CC[C@H](CCN2CCC(c3cccc4c3CCO4)CC2)CC1)c1ccc(N2CCOCC2)nc1 | 228 |
| O=C1CCC(c2ccc3c(c2)NCCO3)=NN1 | 198 to 199 |
| O=C1CCC(N2C(=O)c3cccc(OCc4ccc(CN5CC6CCC(C5)O6)cc4)c3C2=O)C(=O)N1 (stereo not given) | 196 to 198 |
| CC1(C)Oc2ccc(C(=O)CCl)cc2S1 | 84 to 86 |
| CN1C(=O)C(c2ccc(Cl)cc2)SC1c1cccnc1 (stereo not given) | 77.5 to 79 |
| COC(=O)C1CCNC(=O)C1=O (stereo not given) | 151 to 153 |
| CCn1c(=O)c2c(nc(/C=C/c3ccc(OCCCCBr)cc3)n2C)n(CC)c1=O | 175 to 176 |
| CC(C)c1ccc(C(=O)N(C(=N)N)C(=O)c2ccc(C(C)C)c(S(C)(=O)=O)c2)cc1S(C)(=O)=O | 218 to 221 |
| O=C(Cn1cc(Cl)cn1)c1ccc(Br)s1 | 127 |
| O=C(CCC(=O)N1CCC(c2ccc(Cl)cc2)CC1)c1ccc2c(c1)CCN(CC(=O)c1ccccc1)CC2 | 108 to 109 |
